Source: PubChem BioAssay AID256 (DTP/NCI, 2004)
“And” between values parts separate entries of the source, which are not always exact repeats. Equal values may be shown once. Inconclusive results and toxic doses are left out.

System: CD2F1 mice, L1210 leukemia ip, survival T/C
Experiment: NCI In Vivo Anticancer Drug Screen. Data for tumor model L1210 Leukemia (intraperitoneal) in CD2F1 (CDF1) mice
Details: higher = longer survival
Outline: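 Activity against a transplanted murine tumor was judged by comparing the compound group with a vehicle group. The outcome in the treated animals was divided by that in the controls.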

[1] = endpoint: mean survival time, dose: 100.0 mg/kg/injection, schedule: Q01DX009 (ip), vehicle: saline with Tween-80
[2] = endpoint: mean survival time, dose: 200.0 mg/kg/injection, schedule: Q01DX009 (ip), vehicle: saline with Tween-80

CCOC(=O)n1cnc2ncnc(SC)c21
T/C (endpoint: mean survival time, dose: 50.0 mg/kg/injection, schedule: Q01DX001 (ip), vehicle: other): 95 % of control | T/C (endpoint: mean survival time, dose: 50.0 mg/kg/injection, schedule: Q01DX009 (ip), vehicle: other): 102 % of control | T/C (endpoint: mean survival time, dose: 50.0 mg/kg/injection, schedule: Q01DX009 (ip), vehicle: saline with Tween-80): 109 % of control | T/C (endpoint: mean survival time, dose: 100.0 mg/kg/injection, schedule: Q01DX001 (ip), vehicle: other): 106 % of control | T/C (endpoint: mean survival time, dose: 100.0 mg/kg/injection, schedule: Q01DX009 (ip), vehicle: other): 102 % of control | T/C [1]: 101 % of control | T/C (endpoint: mean survival time, dose: 200.0 mg/kg/injection, schedule: Q01DX001 (ip), vehicle: other): 102 % of control | T/C (endpoint: mean survival time, dose: 200.0 mg/kg/injection, schedule: Q01DX009 (ip), vehicle: other): 123 % of control | T/C [2]: 91 % of control | T/C (endpoint: mean survival time, dose: 400.0 mg/kg/injection, schedule: Q01DX001 (ip), vehicle: other): 108 % of control | T/C (endpoint: mean survival time, dose: 400.0 mg/kg/injection, schedule: Q01DX009 (ip), vehicle: other): 121 % of control

NC(=O)c1c[n+](Cc2ccccc2)ccn1
T/C (endpoint: mean survival time, dose: 75.0 mg/kg/injection, schedule: Q01DX001 (ip), vehicle: saline): 104 % of control

CN1CCN(CN2C(=O)C3C4C=CC(C3C2=O)C2C3C(=O)N(CN5CCN(C)CC5)C(=O)C3C42)CC1 (centres undefined)
T/C (endpoint: median survival time, dose: 7.2 mg/kg/injection, schedule: Q03HX027 (ip), vehicle: water): 106 % of control | T/C (endpoint: median survival time, dose: 8.3 mg/kg/injection, schedule: Q03HX027 (ip), vehicle: water): 104 % of control | T/C (endpoint: median survival time, dose: 12.0 mg/kg/injection, schedule: Q03HX027 (ip), vehicle: water): 114 % of control | T/C (endpoint: median survival time, dose: 16.1 mg/kg/injection, schedule: Q01DX009 (ip), vehicle: water): 108 % of control | T/C (endpoint: median survival time, dose: 24.8 mg/kg/injection, schedule: Q01DX009 (ip), vehicle: water): 102 % of control and 105 % of control and 109 % of control | T/C (endpoint: median survival time, dose: 26.8 mg/kg/injection, schedule: Q01DX009 (ip), vehicle: water): 105 % of control | T/C (endpoint: median survival time, dose: 33.4 mg/kg/injection, schedule: Q03HX027 (ip), vehicle: water): 172 % of control | T/C (endpoint: median survival time, dose: 38.4 mg/kg/injection, schedule: Q03HX027 (ip), vehicle: water): 114 % of control | T/C (endpoint: median survival time, dose: 41.3 mg/kg/injection, schedule: Q01DX009 (ip), vehicle: water): 124 % of control | T/C (endpoint: median survival time, dose: 44.6 mg/kg/injection, schedule: Q01DX009 (ip), vehicle: water): 152 % of control | T/C (endpoint: median survival time, dose: 55.7 mg/kg/injection, schedule: Q03HX027 (ip), vehicle: water): 103 % of control | T/C (endpoint: median survival time, dose: 68.8 mg/kg/injection, schedule: Q01DX009 (ip), vehicle: water): 178 % of control and 183 % of control and 219 % of control | T/C (endpoint: median survival time, dose: 74.4 mg/kg/injection, schedule: Q01DX009 (ip), vehicle: water): 255 % of control | T/C (endpoint: median survival time, dose: 114.7 mg/kg/injection, schedule: Q01DX009 (ip), vehicle: water): 210 % of control and 243 % of control and 103 % of control

Cc1ccc(Oc2ccc([N+](=O)[O-])cc2)cc1
T/C (endpoint: mean survival time, dose: 50.0 mg/kg/injection, schedule: Q04DX003 (ip), vehicle: saline): 101 % of control | T/C (endpoint: mean survival time, dose: 100.0 mg/kg/injection, schedule: Q04DX003 (ip), vehicle: saline): 100 % of control | T/C (endpoint: mean survival time, dose: 200.0 mg/kg/injection, schedule: Q04DX003 (ip), vehicle: saline): 94 % of control

CCCCOC(=O)c1c(C(=O)OCCCC)c(-c2ccccc2)c2c(c1-c1ccccc1)-c1cccc3cccc-2c13
T/C (endpoint: mean survival time, dose: 100.0 mg/kg/injection, schedule: Q04DX002 (ip), vehicle: saline with Tween-80): 97 % of control | T/C (endpoint: mean survival time, dose: 200.0 mg/kg/injection, schedule: Q04DX002 (ip), vehicle: saline with Tween-80): 86 % of control | T/C (endpoint: mean survival time, dose: 400.0 mg/kg/injection, schedule: Q04DX002 (ip), vehicle: saline with Tween-80): 90 % of control

CC(C)(C)N[P+](C)(NC(C)(C)C)c1ccccc1
T/C (endpoint: mean survival time, dose: 3.13 mg/kg/injection, schedule: Q04DX003 (ip), vehicle: saline): 98 % of control | T/C (endpoint: mean survival time, dose: 6.25 mg/kg/injection, schedule: Q04DX003 (ip), vehicle: saline): 103 % of control | T/C (endpoint: mean survival time, dose: 12.5 mg/kg/injection, schedule: Q04DX003 (ip), vehicle: saline): 86 % of control and 95 % of control

CCCCC(CC)COCC1CO1 (centres undefined)
T/C (endpoint: mean survival time, dose: 50.0 mg/kg/injection, schedule: Q01DX009 (ip), vehicle: Klucel (hydroxypropylcellulose) (HPC)): 102 % of control | T/C (endpoint: mean survival time, dose: 100.0 mg/kg/injection, schedule: Q01DX009 (ip), vehicle: Klucel (hydroxypropylcellulose) (HPC)): 96 % of control | T/C (endpoint: mean survival time, dose: 200.0 mg/kg/injection, schedule: Q01DX009 (ip), vehicle: Klucel (hydroxypropylcellulose) (HPC)): 100 % of control

NC(CC(=O)NC(=O)OCc1ccccc1)C(=O)O (centres undefined)
T/C [1]: 100 % of control | T/C (endpoint: mean survival time, dose: 100.0 mg/kg/injection, schedule: Q04DX003 (ip), vehicle: saline with Tween-80): 101 % of control | T/C [2]: 102 % of control | T/C (endpoint: mean survival time, dose: 200.0 mg/kg/injection, schedule: Q04DX003 (ip), vehicle: saline with Tween-80): 101 % of control | T/C (endpoint: mean survival time, dose: 400.0 mg/kg/injection, schedule: Q01DX009 (ip), vehicle: saline with Tween-80): 102 % of control | T/C (endpoint: mean survival time, dose: 400.0 mg/kg/injection, schedule: Q04DX003 (ip), vehicle: saline with Tween-80): 98 % of control
